The text below walks through data of PubChem BioAssay AID1671247.

This assay deals with Casein kinase I isoform gamma-2 (Homo sapiens) (UniProt P78368). The assay is described as follows: PubChem AID 1671247. The settings on record: Z'-LYTE FRET kinase activity assay.

Structures are written as SMILES.

Chain of Casein kinase I isoform gamma-2 (Homo sapiens) (P78368 whole entry, looked up, canonical isoform): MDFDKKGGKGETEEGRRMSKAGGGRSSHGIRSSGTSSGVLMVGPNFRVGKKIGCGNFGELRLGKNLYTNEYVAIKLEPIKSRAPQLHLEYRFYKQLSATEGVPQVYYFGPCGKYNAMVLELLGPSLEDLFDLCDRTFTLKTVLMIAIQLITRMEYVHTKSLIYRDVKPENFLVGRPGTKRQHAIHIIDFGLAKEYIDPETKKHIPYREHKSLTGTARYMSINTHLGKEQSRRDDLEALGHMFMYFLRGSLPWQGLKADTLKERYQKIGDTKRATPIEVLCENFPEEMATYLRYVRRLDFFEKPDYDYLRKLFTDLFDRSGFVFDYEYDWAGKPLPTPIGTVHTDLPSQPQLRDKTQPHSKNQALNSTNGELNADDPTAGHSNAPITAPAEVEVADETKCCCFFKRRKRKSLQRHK

Usually IC50 stands for the concentration that gives 50% inhibition. As for `Brc1c(Br)c(Br)c2n[nH]nc2c1Br`, the IC50 was 26.5 µM.
